The values that follow come from patent US20080063643A1, “Peptide Derived From Hepatitis C Virus” (priority 2003, published 2008).

One test concerns peptide-specific IgG. The test is described as follows: Absorption and elution of peptide-specific IgG (Example 1). In kind it is binding, human. The note with it: serum of the patient of FIG. 1. On the procedure: One hundred microliters of a plasma or serum sample diluted with 0.05% Tween 20/Block Ace (registered trademark) was added to each well and allowed to be absorbed to the peptide (20 μg/well) coated on the well of the plate at 37° C. for 2 hours. After this procedure was repeated 3 times, the peptide-specific IgG level in the supernatant was measured by ELISA. The antibody bound to the peptide-coated plate in the initial adsorption step was eluted with 30 μl/well of 5 M NaCl/50 mM citrate buffer (pH 3.0) (neutralized with 0.05% Tween 20/Block Ace containing 1.0 M Tris-HCl (pH 7.5)), and the peptide-specific IgG level in the eluted fraction was measured by ELISA.

In a further test the test system is peptide-reactive IgG. As to the kind of experiment: ELISA of anti-C-35 and anti-NS5A-2132 antibody in cohort study sera of 1995 and 2002. The note with it: serum dilution 100:1. In kind it is binding, human. The procedure: Sera were obtained from 33 patients with a disease associated with HCV in the cohort study conducted between 1995 and 2002. The sera obtained from patients with chronic hepatitis (CH, n=68), liver cirrhosis (LC, n=43) and hepatic cell carcinoma (HCC, n=52) were also used in the analysis. These patients were diagnosed at the time of the first serum sampling by biochemical and histological findings, echography and computed tomography. An anti-HCV antibody was assayed using a chemiluminescence enzyme immunoassay (CLEIA) kit (Lumipulse II HCV, Fujirebio Inc., Tokyo, Japan) or the second generation or the third generation enzyme immunoassay test (SRL, Tokyo, Japan). HCV-RNA in the sera was detected using RT-PCR (SRL, Tokyo, Japan). The HCV genotype was determined by directly sequencing HCV in the sera of the patients by RT-PCR (SRL, Tokyo, Japan). The sera were also obtained from subjects who were not infected with HCV, which include 24 subjects with an autoimmune disease (6 patients with systematic lupus erythematosus, one with Behcet's disease and 17 with atopic dermatitis), 17 cases of hepatitis B virus (HBV) infection (positive for HBV surface antigen), 3 patients having human immunodeficiency virus (HIV) and 10 cases with human T cell leukemia virus type I (HTLV-1) infection.
The level of peptide-specific IgG was measured by an enzyme-linked immunosorbent assay (ELISA). […]
(An ELISA detects its analyte on a solid surface through an enzyme-linked reagent.)

Turning to YLLPRRGPRL [No. 40], in the test on peptide-specific IgG, the “absorption of the antibody reactive to C-35 peptide by the peptide” value is “absorbed by C-35” and the “elution of the antibody reactive to C-35 peptide” value is “eluted from the C-35-adsorbed fraction”. Also, the “level of the anti-peptide antibody in 1995 compared with 2002” value with peptide-reactive IgG (33 cohort patients) is “almost equal”. In the test with peptide-reactive IgG (CH, LC, HCC, recovered individuals, ASC), the “level of the anti-peptide antibody by group in 2002” value was “high in any of CH, LC, and HCC patients, and it became very low or undetectable in the recovered individuals”.
